# Measured values as given in ChEMBL document CHEMBL1153701, “Synthesis and evaluation of antiallodynic and anticonvulsant activity of novel amide and urea derivatives of valproic acid analogues” (2009).
# The source made the active and inactive calls. No cut-off for these calls is given here.
# Legend:
# Rattus norvegicus [1] = test: Antiallodynic activity in rat assessed as protection against spinal nerve ligation-induced neuropathic pain at 80 mg/kg, ip after 180 mins; type: functional, organism-based; parameters: dose 80 mg/kg
# Rattus norvegicus [2] = test: Antiallodynic activity in rat assessed as protection against spinal nerve ligation-induced neuropathic pain at 80 mg/kg, ip after 240 mins; type: functional, organism-based; parameters: dose 80 mg/kg
# Mus musculus [3] = test: Antiepileptic activity in CF1 mouse assessed as inhibition of maximal electroshock-induced seizures at 30 mg/kg, ip after 0.5 hrs; type: functional, organism-based; parameters: dose 30 mg/kg
# Mus musculus [4] = test: Antiepileptic activity in CF1 mouse assessed as inhibition of maximal electroshock-induced seizures at 100 mg/kg, ip after 0.5 hrs; type: functional, organism-based; parameters: dose 100 mg/kg
# Mus musculus [5] = test: Antiepileptic activity in CF1 mouse assessed as inhibition of maximal electroshock-induced seizures at 300 mg/kg, ip after 0.5 hrs; type: functional, organism-based; parameters: dose 300 mg/kg
# Mus musculus [6] = test: Antiepileptic activity in CF1 mouse assessed as inhibition of maximal electroshock-induced seizures at 30 mg/kg, ip after 4 hrs; type: functional, organism-based; parameters: dose 30 mg/kg
# Mus musculus [7] = test: Antiepileptic activity in CF1 mouse assessed as inhibition of maximal electroshock-induced seizures at 100 mg/kg, ip after 4 hrs; type: functional, organism-based; parameters: dose 100 mg/kg
# Mus musculus [8] = test: Antiepileptic activity in CF1 mouse assessed as inhibition of maximal electroshock-induced seizures at 300 mg/kg, ip after 4 hrs; type: functional, organism-based; parameters: dose 300 mg/kg
# Mus musculus [9] = test: Antiepileptic activity in CF1 mouse assessed as inhibition of subcutaneous pentylenetetrazole-induced seizures at 30 mg/kg, ip after 0.5 hrs; type: functional, organism-based; parameters: dose 30 mg/kg
# Mus musculus [10] = test: Antiepileptic activity in CF1 mouse assessed as inhibition of subcutaneous pentylenetetrazole-induced seizures at 100 mg/kg, ip after 0.5 hrs; type: functional, organism-based; parameters: dose 100 mg/kg
# Mus musculus [11] = test: Antiepileptic activity in CF1 mouse assessed as inhibition of subcutaneous pentylenetetrazole-induced seizures at 300 mg/kg, ip after 0.5 hrs; type: functional, organism-based; parameters: dose 300 mg/kg
# Mus musculus [12] = test: Antiepileptic activity in CF1 mouse assessed as inhibition of subcutaneous pentylenetetrazole-induced seizures at 30 mg/kg, ip after 4 hrs; type: functional, organism-based; parameters: dose 30 mg/kg
# Mus musculus [13] = test: Antiepileptic activity in CF1 mouse assessed as inhibition of subcutaneous pentylenetetrazole-induced seizures at 100 mg/kg, ip after 4 hrs; type: functional, organism-based; parameters: dose 100 mg/kg
# Mus musculus [14] = test: Antiepileptic activity in CF1 mouse assessed as inhibition of subcutaneous pentylenetetrazole-induced seizures at 300 mg/kg, ip after 4 hrs; type: functional, organism-based; parameters: dose 300 mg/kg
# Mus musculus [15] = test: Neurotoxicity in CF1 mouse assessed as protection against motor impairment at 30 mg/kg, ip after 0.5 hrs by rotarod test; type: functional, organism-based; parameters: dose 30 mg/kg
# Mus musculus [16] = test: Neurotoxicity in CF1 mouse assessed as protection against motor impairment at 100 mg/kg, ip after 0.5 hrs by rotarod test; type: functional, organism-based; parameters: dose 100 mg/kg
# Mus musculus [17] = test: Neurotoxicity in CF1 mouse assessed as protection against motor impairment at 300 mg/kg, ip after 0.5 hrs by rotarod test; type: functional, organism-based; parameters: dose 300 mg/kg
# Mus musculus [18] = test: Neurotoxicity in CF1 mouse assessed as protection against motor impairment at 30 mg/kg, ip after 4 hrs by rotarod test; type: functional, organism-based; parameters: dose 30 mg/kg
# Mus musculus [19] = test: Neurotoxicity in CF1 mouse assessed as protection against motor impairment at 100 mg/kg, ip after 4 hrs by rotarod test; type: functional, organism-based; parameters: dose 100 mg/kg
# Mus musculus [20] = test: Neurotoxicity in CF1 mouse assessed as protection against motor impairment at 300 mg/kg, ip after 4 hrs by rotarod test; type: functional, organism-based; parameters: dose 300 mg/kg
# Rattus norvegicus [21] = test: Antiallodynic activity in rat assessed as protection against spinal nerve ligation-induced neuropathic pain at 80 mg/kg, ip after 30 mins; type: functional, organism-based; parameters: dose 80 mg/kg
# Rattus norvegicus [22] = test: Antiallodynic activity in rat assessed as protection against spinal nerve ligation-induced neuropathic pain at 80 mg/kg, ip after 60 mins; type: functional, organism-based; parameters: dose 80 mg/kg
# Rattus norvegicus [23] = test: Antiallodynic activity in rat assessed as protection against spinal nerve ligation-induced neuropathic pain at 80 mg/kg, ip after 120 mins; type: functional, organism-based; parameters: dose 80 mg/kg
# Rattus norvegicus [24] = test: Anticonvulsant activity in albino Sprague-Dawley rat assessed as protection against pilocarpine-induced seizure at 200 mg/kg, ip; type: functional, organism-based; parameters: dose 200 mg/kg
# Rattus norvegicus [25] = test: Anticonvulsant activity in ip dosed albino Sprague-Dawley rat assessed as protection against pilocarpine-induced seizure; type: functional
# Rattus norvegicus [26] = test: Anticonvulsant activity in albino Sprague-Dawley rat assessed as protection against pilocarpine-induced seizure at 450 mg/kg, ip; type: functional, organism-based; parameters: dose 450 mg/kg
# Rattus norvegicus [27] = test: Anticonvulsant activity in albino Sprague-Dawley rat assessed as protection against pilocarpine-induced seizure at 600 mg/kg, ip treated after 30 mins of pilcarpine challenge; type: functional, organism-based; parameters: dose 600 mg/kg
# Rattus norvegicus [28] = test: Anticonvulsant activity in albino Sprague-Dawley rat assessed as protection against pilocarpine-induced seizure at 200 mg/kg, ip treated after 30 mins of pilcarpine challenge; type: functional, organism-based; parameters: dose 200 mg/kg
# Rattus norvegicus [29] = test: Anticonvulsant activity in albino Sprague-Dawley rat assessed as protection against pilocarpine-induced seizure at 65 mg/kg, ip; type: functional, organism-based; parameters: dose 65 mg/kg
# Rattus norvegicus [30] = test: Anticonvulsant activity in albino Sprague-Dawley rat assessed as protection against pilocarpine-induced seizure at 130 mg/kg, ip treated after 30 mins of pilcarpine challenge; type: functional, organism-based; parameters: dose 130 mg/kg
# Rattus norvegicus [31] = test: Antiallodynic activity in ip dosed rat assessed as protection against spinal nerve ligation-induced neuropathic pain; type: functional
# Mus musculus [32] = test: Antiepileptic activity in ip dosed CF1 mouse assessed as inhibition of maximal electroshock-induced seizures; type: functional
Compound,Activity (Rattus norvegicus [1]),Activity (Rattus norvegicus [2]),Activity (Mus musculus [3]),Activity (Mus musculus [4]),Activity (Mus musculus [5]),Activity (Mus musculus [6]),Activity (Mus musculus [7]),Activity (Mus musculus [8]),Activity (Mus musculus [9]),Activity (Mus musculus [10]),Activity (Mus musculus [11]),Activity (Mus musculus [12]),Activity (Mus musculus [13]),Activity (Mus musculus [14]),Activity (Mus musculus [15]),Activity (Mus musculus [16]),Activity (Mus musculus [18]),Activity (Mus musculus [19]),Activity (Mus musculus [20]),Activity (Rattus norvegicus [21]),further results
CNC(=O)CC(C)(C)C,inactive,inactive,inactive,inactive,inactive,inactive,inactive,inactive,inactive,inactive,inactive,inactive,inactive,inactive,inactive,inactive,inactive,inactive,inactive,inactive,Activity (Mus musculus [17]): inactive; Activity (Rattus norvegicus [22]): inactive; Activity (Rattus norvegicus [23]): inactive
CCC(C(N)=O)C(C)(C)C (stereo not drawn),–,inactive,inactive,inactive,inactive,inactive,inactive,Active,inactive,inactive,Active,inactive,inactive,inactive,inactive,inactive,inactive,inactive,inactive,–,Activity (Rattus norvegicus [24]): Active; ED50 (Rattus norvegicus [25]): 257 mg/kg; ED97 (Rattus norvegicus [25]): 451 mg/kg
CC(C)C(C)C(N)=O (stereo not drawn),–,–,inactive,inactive,inactive,inactive,inactive,inactive,inactive,inactive,inactive,inactive,inactive,inactive,inactive,inactive,inactive,inactive,inactive,–,Activity (Mus musculus [17]): inactive; Activity (Rattus norvegicus [26]): Active; Activity (Rattus norvegicus [27]): Active
CC(C)(C)CC(N)=O,inactive,inactive,inactive,inactive,inactive,inactive,inactive,inactive,inactive,inactive,inactive,inactive,–,inactive,inactive,inactive,inactive,inactive,–,inactive,Activity (Rattus norvegicus [22]): inactive; Activity (Rattus norvegicus [23]): inactive
CCCCC(CC)C(=O)NC(N)=O (stereo not drawn),inactive,inactive,inactive,–,Active,inactive,inactive,inactive,inactive,inactive,Active,inactive,inactive,inactive,inactive,inactive,inactive,inactive,inactive,inactive,Activity (Mus musculus [17]): Active; ED50 (Rattus norvegicus [25]): 247 mg/kg; ED97 (Rattus norvegicus [25]): 439 mg/kg; Activity (Rattus norvegicus [22]): inactive; Activity (Rattus norvegicus [23]): inactive
CCCC(C(=O)NC(N)=O)C(C)C (stereo not drawn),inactive,–,inactive,inactive,inactive,inactive,inactive,Active,inactive,Active,Active,inactive,inactive,inactive,–,–,–,–,inactive,inactive,Activity (Rattus norvegicus [28]): Active; Activity (Rattus norvegicus [22]): inactive; Activity (Rattus norvegicus [23]): inactive
CCCC(C(N)=O)C(C)(C)C (stereo not drawn),–,–,inactive,–,Active,inactive,–,Active,inactive,inactive,Active,inactive,inactive,inactive,inactive,–,inactive,inactive,–,–,Activity (Rattus norvegicus [29]): Active; Activity (Rattus norvegicus [30]): Active
CCCC(C(N)=O)C(C)CC (stereo not drawn),–,–,inactive,–,Active,inactive,inactive,inactive,inactive,inactive,Active,inactive,inactive,inactive,inactive,inactive,inactive,inactive,inactive,–,ED50 (Rattus norvegicus [31]): 49 mg/kg; ED50 (Mus musculus [32]): inactive; Activity (Rattus norvegicus [29]): Active; Activity (Rattus norvegicus [30]): Active; ED50 (Rattus norvegicus [25]): 84 mg/kg; ED97 (Rattus norvegicus [25]): 149 mg/kg
